Assay results published in patent US10183914B2 (BAYER CROPSCIENCE AKTIENGESELLSCHAFT, priority 2014, dated 2019).

Experiments:
[1] = logp (HCOOH), physicochemical characterization
[2] = system: Triticum aestivum (spring); assay: Pre-emergence herbicidal effect and crop plant compatibility; format: in vivo; details: 3 weeks
Text: (§1) Seeds of monocotyledonous and dicotyledonous weed plants and crop plants are laid out in wood-fiber pots in sandy loam and covered with soil. The compounds of the invention, formulated in the form of wettable powders (WP) or as emulsion concentrates (EC), are then applied to the surface of the covering soil as aqueous suspension or emulsion at a water application rate equating to 600 to 800 L/ha with addition of 0.2% wetting agent.
(§2) After the treatment, the pots are placed in a greenhouse and kept under good growth conditions for the trial plants. The damage to the trial plants is scored visually after a trial duration of 3 weeks by comparison with untreated controls (herbicidal activity in percent (%): 100% efficacy=the plants have died, 0% efficacy=like control plants).

Zea mays = assay: as above; format: in vivo; details: 3 weeks
Text: as §1, §2

Matricaria inodora = assay: Pre-emergence herbicidal effect; format: in vivo; details: 3 weeks
Text: as §1, §2

Amaranthus retroflexus = assay: Pre-emergence herbicidal effect; format: in vivo; details: 3 weeks
Text: as §1, §2

Veronica persica = assay: Pre-emergence herbicidal effect; format: in vivo; details: 3 weeks
Text: as §1, §2

Polygonum convolvulus = assay: Pre-emergence herbicidal effect; format: in vivo; details: 1280 g/ha, 3 weeks
Text: as §1, §2

Viola tricolor = assay: Pre-emergence herbicidal effect; format: in vivo; details: 3 weeks
Text: as §1, §2

Stellaria media = assay: Pre-emergence herbicidal effect; format: in vivo; details: 3 weeks
Text: as §1, §2

Oryza sativa = assay: Pre-emergence herbicidal effect and crop plant compatibility; format: in vivo; details: 3 weeks
Text: as §1, §2

Echinochloa crus-galli = assay: Pre-emergence herbicidal effect; format: in vivo; details: 320 g/ha, 3 weeks
Text: as §1, §2

Setaria viridis = assay: Pre-emergence herbicidal effect; format: in vivo; details: 320 g/ha, 3 weeks
Text: as §1, §2

Structure (SMILES)	logp (HCOOH) [1]	TRZAS herbicidal activity in percent ([2]; 320 g/ha) [%]	ZEAMX herbicidal activity in percent (Zea mays; 320 g/ha) [%]	MATIN herbicidal activity in percent (Matricaria inodora; 320 g/ha) [%]	AMARE herbicidal activity in percent (Amaranthus retroflexus; 320 g/ha) [%]	VERPE herbicidal activity in percent (Veronica persica; 320 g/ha) [%]	VIOTR herbicidal activity in percent (Viola tricolor; 320 g/ha) [%]	STEME herbicidal activity in percent (Stellaria media; 320 g/ha) [%]	TRZAS herbicidal activity in percent ([2]; 80 g/ha) [%]	ZEAMX herbicidal activity in percent (Zea mays; 80 g/ha) [%]	AMARE herbicidal activity in percent (Amaranthus retroflexus; 80 g/ha) [%]	also measured
CC(=O)c1cnc(NC2c3ccccc3CCC2C)nc1 (racemic) [1.20]	oily; logp (HCOOH): 2.93; 1H-NMR (CDCl3, 400 MHZ, δ in ppm): 1.05 (d, 3H, CH3);	20	0	90	90	100	90	100				ZEAMX herbicidal activity in percent (Zea mays; 1280 g/ha): 0%; MATIN herbicidal activity in percent (Matricaria inodora; 1280 g/ha): 100%; AMARE herbicidal activity in percent (Amaranthus retroflexus; 1280 g/ha): 100%; VERPE herbicidal activity in percent (Veronica persica; 1280 g/ha): 100%; POLCO herbicidal activity in percent (Polygonum convolvulus): 100%; VIOTR herbicidal activity in percent (Viola tricolor; 1280 g/ha): 100%; STEME herbicidal activity in percent (Stellaria media; 1280 g/ha): 100%
CC(=O)c1c(C)nc(NC2CCSc3c(F)cccc32)nc1C (racemic) [1.65]	solid; logp (HCOOH): 2.93; 1H-NMR (CDCl3, 400 MHZ, δ in ppm): 2.20 (m, 1H, 1H											
CC(=O)c1cnc(NC2CCOc3c(C)cc(F)cc32)nc1C (racemic) [1.87]		0	10	100	100	100	100	100	0	0	80	ORYSA herbicidal activity in percent (Oryza sativa; 80 g/ha): 0%; ECHCG herbicidal activity in percent (Echinochloa crus-galli): 100%; MATIN herbicidal activity in percent (Matricaria inodora; 80 g/ha): 90%; SETVI herbicidal activity in percent (Setaria viridis): 100%; VIOTR herbicidal activity in percent (Viola tricolor; 80 g/ha): 100%
COc1ccc2c(c1)CCC2Nc1ncc(C(C)=O)c(C)n1 (racemic) [1.92]		0	20	100	100	100	100		0	20	100	ORYSA herbicidal activity in percent (Oryza sativa; 320 g/ha): 0%; VERPE herbicidal activity in percent (Veronica persica; 80 g/ha): 100%
COc1ccc2c(c1)OC(C)(C)CC2Nc1ncc(C(C)=O)c(C)n1 (racemic) [1.96]	solid; m.p.: 183.5° C.; logp (HCOOH): 3.12; 1H-NMR (CDCl3, 400 MHZ, δ in ppm):											
O=C1CCCc2nc(NC3CCOc4c(Cl)cccc43)ncc21 (racemic) [2.84]	oily; logp (HCOOH): 2.75; 1H-NMR (CDCl3, 400 MHZ, δ in ppm): 2.15 (m, 3H, 2H											
CC1CCc2ccccc2C1Nc1ncc2c(n1)CC(C)(C)CC2=O (racemic) [2.95]	oily; logp (HCOOH): 4.02; 1H-NMR (CDCl3, 400 MHZ, δ in ppm): 1.10 (s + d, 9H,	0	0	90	100	100	100	100	0	0	100	ORYSA herbicidal activity in percent (Oryza sativa; 80 g/ha): 0%; ORYSA herbicidal activity in percent (Oryza sativa; 320 g/ha): 0%; ECHCG herbicidal activity in percent (Echinochloa crus-galli): 80%; MATIN herbicidal activity in percent (Matricaria inodora; 80 g/ha): 90%; VERPE herbicidal activity in percent (Veronica persica; 80 g/ha): 100%; STEME herbicidal activity in percent (Stellaria media; 80 g/ha): 100%
CCC1Cc2ccc(C)cc2C1Nc1ncc2c(n1)CCCC2=O (racemic) [2.106]	oily; logp (HCOOH): 3.90; 1H-NMR (CDCl3, 400 MHZ, δ in ppm): 0.95 (t, 3H, CH3);											
CC(C)c1ccc2c(c1)C(Nc1ncc3c(n1)CCCC3=O)CC2 (racemic) [2.107]	oily; logp (HCOOH): 3.83; 1H-NMR (CDCl3, 400 MHZ, δ in ppm): 1.20 (d, 6H,											
CC1Cc2cc(Cl)ccc2C1Nc1ncc2c(n1)CCCC2=O (racemic) [2.108]	oily; logp (HCOOH): 3.58; 1H-NMR (CDCl3, 400 MHZ, δ in ppm): 1.25 (d, 3H, CH3);											
